The record followed here is US20240148684A1, “COMPOUNDS AND METHODS FOR TREATING CONGENITAL ERYTHROPOIETIC PORPHYRIA” (RUTGERS, THE STATE UNIVERSITY OF NEW JERSEY, priority 2021, published 2024).

In data set [1] the test system is Saos-2 cells. In kind it is cell-based, human. The procedure: Saos-2 cells were purchased from ATCC. Cells were maintained in McCoy 5A medium supplemented with 15% FBS, penicillin/streptomycin, non-essential amino acids, Hepes and L-glutamine. To induce mineralization, cells were treated with mineralization activation cocktail (MAC), consisting of 5 mM b-glycerophosphate, […] ascorbic acid and 10 nM dexamethasone. Uro-I solution preparation and treatment of zebrafish larvae and Saos-2 cells
(§1) Saos-2 cells were plated in 12-well plates (1.5×10^5 cells/well) and allowed to attach overnight. Cells were then treated with Uro-I ([…] final concentration) or vehicle in medium containing MAC for 3 days. Experiments were conducted in a dark room and cells were kept shielded from light in a tissue culture incubator.
Etretinate (Selleck Chemicals, Houston, TX) and tretinoin (Selleck Chemicals, Houston, TX) treatment was performed as described for acitretin. In addition to being used as prophylaxis, the therapeutic effect of acitretin was evaluated. […] Porphyrin binding, excretion and bone volume were analyzed. […]
Cell mineralization was quantified by ARS (Sigma Aldrich St. Louis, MO) staining as described previously (Harper, E. et al. PLoS One 12, e0188192, doi:10.1371/journal.pone.0188192 (2017)), with minor modifications. […] ARS standard curve (from 2-0.02 mM) and samples were transferred in triplicate to a 96-well plate and absorbance was measured at 405 nm.

The test system of data set [2] is uro-I injected zebrafish larvae. The experiment in a line: Zebrafish CEP model, prophylaxis protocol (retinoid co-administered with uro-I injection). The class given is in vivo, Zebrafish (Danio rerio). To be noted: 24 hours, vs DMSO; for porphyrin fluorescence in bones (operculum and vertebrae): 10 μM in E3 medium. The procedure: Techniques that can be used to perform the methods of the invention are described by Elenbaas, J. S., et al., FASEB, 2016, 30, 1798-1810; and Cunha, J. B., Scientific Reports, 2021, 11, 9601.
Validation and characterization of acitretin as a potential treatment for CEP was performed. Six dpf ABTL zebrafish larvae injected with uro-I were immediately transferred to 10 cm plastic dishes containing 10 μM acitretin or DMSO in E3 medium (prophylaxis protocol FIG. 2A) and incubated for 24 hours in the dark at 28.5° C. Porphyrin binding to bones and bone volume were analyzed by confocal microscopy as described above. Porphyrin excretion into the medium was quantified. Uro-I-injected larvae were transferred to 96-well plates, one larva/well, […] of […] acitretin or DMSO/well. Medium was collected after 24 hours and porphyrin was quantified as described previously.
(§2) Etretinate (Selleck Chemicals, Houston, TX) and tretinoin (Selleck Chemicals, Houston, TX) treatment was performed as described for acitretin. In addition to being used as prophylaxis, the therapeutic effect of acitretin was evaluated. Six dpf AB×TL zebrafish larvae were injected with Uro-I and 24 hours later they were transferred to E3 medium containing […] acitretin or DMSO. Porphyrin binding, excretion and bone volume were analyzed. Saos-2 cells were treated with […] acitretin or DMSO in medium containing MAC and Uro-I.

The test system is the same in data set [3]. The experiment in a line: Zebrafish CEP model, therapeutic protocol (acitretin 24 hours after uro-I injection). The class given is in vivo, Zebrafish (Danio rerio). To be noted: acitretin from 24 hours after uro-I, further 24 hours. The procedure: as §2
Data set [4] deals with Saos-2 cells. The class given is cell-based, human. The procedure: as §1, §2
Saos-2 cells RNA was extracted using RNeasy mini kit (Qiagen, Catalog #: 74104). and gene expression was carried using the RT^2 Profiler PCR Array for human cellular stress responses (Qiagen, Catalog #: PAHS-019ZA) following manufacturer's instructions. A previously described qPCR (Elenbaas, J. S. et al. Gastroenterology 154, 1625-1629 e1628, doi:10.1053/j.gastro.2018.01.024 (2018)) was performed for COL1A1 and SERPINH1 (IDT Integrated DNA Technologies, PrimeTime assay ID Hs.PT.58.15517795 and Hs.PT.56a.26865778, respectively).
The source holds these as a separate data set.

For data set [5], the system named is zebrafish larvae. The experiment in a line: Acitretin dose-response curve, toxicity to zebrafish larvae. The class given is in vivo, Zebrafish (Danio rerio). To be noted: dose-response 0.5-12.5 mM.
Data set [6] has as its system Saos-2 cells. The experiment in a line: Saos-2 immunoblotting of ER stress (BiP) and autophagy (LC3-II) markers. The class given is cell-based, human. The conditions noted are these: acitretin with MAC and Uro-I, vs DMSO. The procedure:
as §1, §2
Saos-2 cells were lysed in ice cold RIPA buffer (Sigma Aldrich, St. Louis, MO) with protease inhibitor cocktail (Thermo Scientific, Waltham, MA) and scraped. Whole cell lysate was kept in the dark until reducing SDS-PAGE sample buffer was added. Immunoblotting, band densitometry and mass spectrometry were conducted as described previously (Maitra, D. et al. Cell Mol Gastroenterol Hepatol 8, 659-682 e651, doi:10.1016/j.jcmgh.2019.05.010 (2019); and Maitra, D. et al. J Biol Chem 290, 23711-23724, doi:10.1074/jbc.M114.636001 (2015)). […]
In general terms: A western blot detects proteins with antibodies after separation by electrophoresis.

Data set [7] has as its system uro-I injected zebrafish larvae. As to the kind of experiment: High throughput drug screening (Prestwick library) in zebrafish CEP model. The class given is in vivo, Zebrafish (Danio rerio). To be noted: 24 h, visual analysis vs DMSO-treated larvae, drug tested individually. The procedure:
Unbiased high throughput drug screening was performed using the Prestwick library (Prestwick Chemical), which consists of 1,280 small molecules chosen by the manufacturer for their bioavailability and safety. […] Zebrafish E3 medium ([…]) was transferred to a 96-well half area imaging plate (Corning, cat. n. 3880) using a Multidrop dispenser (ThermoFisher Scientific). Compounds ([…] of 2 mM stock) were added to the wells using a multichannel plate handling robot (Biomek FX, Beckman Coulter Life Sciences). […] Control wells contained […] of DMSO.
Six dpf NHGRI-1 zebrafish larvae were injected retro-orbitally with approximately 2 nL of a solution of Uro-I (10 mM) and calcein (0.2% w/v). Immediately after injection, larvae were transferred to a 96-well test plate (two larvae in […] of E3 medium/well), including the DMSO control wells. Control larvae injected with the drug vehicle (dimethyl sulfoxide, DMSO) and calcein were transferred to E3 medium-only containing wells. Larvae were kept in the dark, at 28.5° C. After 24 h, they were anesthetized with tricaine-S, centrifuged at 500×g for two minutes and imaged using the ImageXpress Micro Cellular Imaging and Analysis System (Molecular Devices). Positive hits were selected based on visual identification of calcein signal increase and porphyrin signal decrease compared to DMSO-treated larvae. […]

Data set [8] concerns zebrafish larvae. The conditions noted are these: in vivo.
Procedure: Uro-I (uroporphyrin-I dihydrochloride; Frontier Scientific, Catalog #: U830-1) was initially resuspended in 0.1M NaOH and the pH was adjusted to neutral using 0.2 M Na2HPO4. Six days post fertilization (dpf), ABTL zebrafish larvae were injected via the retro-orbital route with approximately 3 nL of 7.2 mM Uro-I solution and control larvae were injected with vehicle (0.1M NaOH in 0.2M Na2HPO4). After injection, larvae were immediately transferred to Petri dishes wrapped with heavy duty aluminum foil and kept in a dark incubator, at 28.5° C., for 24 h. Where indicated, 7 dpf larvae were injected with approximately 2 nL of 0.2% w/v calcein (Sigma, Catalog #: C0875) 2 h prior to imaging.
Seven dpf AB×TL zebrafish larvae were anesthetized with tricaine-S (Syndel) and immobilized in 0.5% low melt agarose. Fluorescent z-series were captured using an Olympus FV500 confocal microscope (10× objective, confocal aperture of 300 mm) with an optical thickness of 10 mm and z-step size of 10 mm. Calcein was excited with a 488 nm argon laser and emission was captured between 505 and 525 nm. Porphyrin was excited with a 405 nm laser diode and emission was captured above 560 nm. Three-dimensional image reconstruction and quantification of fluorescent signal and bone volume were performed using Imaris 3D visualization and analysis software v7.7 (Bitplane).
The mark [9] stands for this setting: acitretin in uro-I treated cells.

In the case of `COc1cc(C)c(/C=C/C(C)=C/C=C/C(C)=C/C(=O)O)c(C)c1C` [acitretin], the “uro-I-mediated loss of mineralization (ARS staining)” value in the data set with Saos-2 cells [1] (10 mM acitretin in medium containing MAC and Uro-I) was “did not prevent”. In data set [2], the “porphyrin fluorescence in bones (operculum and vertebrae)” value (from here on “porphyrin fluorescence in bones”) was “significantly reduced”; the “operculum volume (bone volume)” value is on record as “no effect”; the “uro-I excretion into the medium” value was “increased”. In data set [3], the bone porphyrin fluorescence entry was “did not decrease”, the operculum volume result is on record as “increased” and the “uro-I excretion to the medium” value is reported as “increased”. For the same compound, in the data set on Saos-2 cells [4] (setting [9]), the SOD3 downregulation was found to be 3.8 fold, the “Upregulation of COL1A1” value came out at 1.7 × and the “Upregulation of SERPINH1” value turned out to be 5.4 ×. Besides, the “toxicity to zebrafish larvae” value in the data set on zebrafish larvae [5] is given as “without being toxic”. Also, in the data set on Saos-2 cells [6], the “BiP level (ER stress response)” value is “reducing BiP level” and the “LC3-II (autophagic flux)” value is reported as “reducing LC3-II”. Also, in data set [7], the “uro-I accumulation in bones (screening hit)” value is “decreased uro-I accumulation in bones”.

Turning to `CC1=C(/C=C/C(C)=C/C=C/C(C)=C/C(=O)O)C(C)(C)CCC1` [tretinoin, all trans-retinoic acid], in data set [2], the “porphyrin fluorescence in bones” value is recorded as “significantly reduced”; the “operculum volume (bone volume)” value is recorded as “did not prevent loss in bone volume”.

With `Cl.Cl.O=C(O)CCC1=C(CC(=O)O)c2cc3nc(cc4[nH]c(cc5[nH]c(cc1n2)c(CC(=O)O)c5CCC(=O)O)c(CC(=O)O)c4CCC(=O)O)C(CC(=O)O)=C3CCC(=O)O` [Uro-I, uroporphyrin-I dihydrochloride], the “mineralization (ARS staining)” value in the data set with Saos-2 cells [1] was “decreased significantly”. Moreover, in the data set on Saos-2 cells [4], the HSPA5 expression increase amounted to 2.1 ×, the SERPINH1 expression decrease stood at 3.3 ×, the SOD3 expression increase is reported as 2.8 × and the “reduction in COL1A1 expression” value is recorded as 90%. The “operculum and 4th vertebra volume” value in the data set with zebrafish larvae [8] is reported as “significantly decreased”.

Regarding `CCOC(=O)/C=C(C)/C=C/C=C(C)/C=C/c1c(C)cc(OC)c(C)c1C` [etretinate], in data set [2], the “porphyrin fluorescence in bones” value was “did not demonstrate significant activity”.
